Data as given in the NIST ThermoML archive (doi:10.1021/je600573w).
Numbers after ± are expanded uncertainties.

Experiments:
[1] = molar heat capacity at constant pressure; settings: 101.33 kPa, Liquid, Small sample (50 mg) DSC
[2] = 101.33 kPa, Liquid, Vibrating tube method

Clc1ccc(Cl)c(Cl)c1Cl [1,2,3,4-tetrachlorobenzene]
[1]
Settings | molar heat capacity at constant pressure [J/K/mol]
327.15 K | 225.17 ± 3.5
329.15 K | 225.49 ± 3.5
331.15 K | 225.82 ± 3.5
333.15 K | 226.14 ± 3.5
335.15 K | 226.47 ± 3.5
337.15 K | 226.8 ± 3.5
339.15 K | 227.13 ± 3.5
341.15 K | 227.46 ± 3.5
343.15 K | 227.8 ± 3.5
345.15 K | 228.13 ± 3.5
347.15 K | 228.47 ± 3.5
349.15 K | 228.81 ± 3.5
351.15 K | 229.16 ± 3.5
353.15 K | 229.5 ± 3.6

Clc1cccc(Cl)c1Cl [1,2,3-trichlorobenzene]
[1]
Settings | molar heat capacity at constant pressure [J/K/mol]
327.15 K | 201.44 ± 3.1
329.15 K | 201.8 ± 3.1
331.15 K | 202.16 ± 3.1
333.15 K | 202.52 ± 3.1
335.15 K | 202.88 ± 3.1
337.15 K | 203.25 ± 3.1
339.15 K | 203.62 ± 3.1
341.15 K | 204 ± 3.2
343.15 K | 204.38 ± 3.2
345.15 K | 204.75 ± 3.2
347.15 K | 205.14 ± 3.2
349.15 K | 205.52 ± 3.2
351.15 K | 205.91 ± 3.2
353.15 K | 206.3 ± 3.2

Clc1ccc(Cl)c(Cl)c1 [1,2,4-trichlorobenzene]
Settings | mass density [kg/m3] | molar heat capacity at constant pressure [J/K/mol]
[1], 293.15 K | – | 194.25 ± 3
[1], 295.15 K | – | 194.57 ± 3
[1], 297.15 K | – | 194.9 ± 3
[1], 299.15 K | – | 195.23 ± 3
[1], 301.15 K | – | 195.57 ± 3
[1], 303.15 K | – | 195.92 ± 3
[1], 305.15 K | – | 196.27 ± 3
[1], 307.15 K | – | 196.63 ± 3
[1], 309.15 K | – | 196.99 ± 3
[1], 311.15 K | – | 197.35 ± 3.1
[1], 313.15 K | – | 197.72 ± 3.1
[1], 315.15 K | – | 198.09 ± 3.1
[1], 317.15 K | – | 198.47 ± 3.1
[1], 319.15 K | – | 198.85 ± 3.1
[1], 321.15 K | – | 199.23 ± 3.1
[1], 323.15 K | – | 199.61 ± 3.1
[1], 325.15 K | – | 200 ± 3.1
[1], 327.15 K | – | 200.38 ± 3.1
[1], 329.15 K | – | 200.77 ± 3.1
[1], 331.15 K | – | 201.16 ± 3.1
[1], 333.15 K | – | 201.55 ± 3.1
[1], 335.15 K | – | 201.93 ± 3.1
[1], 337.15 K | – | 202.32 ± 3.1
[1], 339.15 K | – | 202.71 ± 3.1
[1], 341.15 K | – | 203.09 ± 3.1
[1], 343.15 K | – | 203.47 ± 3.1
[1], 345.15 K | – | 203.85 ± 3.2
[1], 347.15 K | – | 204.23 ± 3.2
[1], 349.15 K | – | 204.61 ± 3.2
[1], 351.15 K | – | 204.98 ± 3.2
[1], 353.15 K | – | 205.35 ± 3.2
[2], 288.15 K | 1460.65 ± 0.82 | –
[2], 298.15 K | 1448.67 ± 0.81 | –
[2], 308.15 K | 1436.73 ± 0.79 | –
[2], 318.15 K | 1424.8 ± 0.8 | –
[2], 328.15 K | 1412.89 ± 0.76 | –
[2], 338.15 K | 1400.98 ± 0.75 | –

Brc1ccccc1Br [1,2-dibromobenzene]
Settings | mass density [kg/m3] | molar heat capacity at constant pressure [J/K/mol]
[1], 283.15 K | – | 177.44 ± 2.8
[1], 285.15 K | – | 177.83 ± 2.8
[1], 287.15 K | – | 178.12 ± 2.8
[1], 289.15 K | – | 178.43 ± 2.8
[1], 291.15 K | – | 178.75 ± 2.8
[1], 293.15 K | – | 179.08 ± 2.8
[1], 295.15 K | – | 179.42 ± 2.8
[1], 297.15 K | – | 179.76 ± 2.8
[1], 299.15 K | – | 180.12 ± 2.8
[1], 301.15 K | – | 180.48 ± 2.8
[1], 303.15 K | – | 180.85 ± 2.8
[1], 305.15 K | – | 181.22 ± 2.8
[1], 307.15 K | – | 181.6 ± 2.8
[1], 309.15 K | – | 181.99 ± 2.8
[1], 311.15 K | – | 182.38 ± 2.8
[1], 313.15 K | – | 182.77 ± 2.8
[1], 315.15 K | – | 183.17 ± 2.8
[1], 317.15 K | – | 183.57 ± 2.8
[1], 319.15 K | – | 183.97 ± 2.9
[1], 321.15 K | – | 184.38 ± 2.9
[1], 323.15 K | – | 184.79 ± 2.9
[1], 325.15 K | – | 185.19 ± 2.9
[1], 327.15 K | – | 185.6 ± 2.9
[1], 329.15 K | – | 186.01 ± 2.9
[1], 331.15 K | – | 186.42 ± 2.9
[1], 333.15 K | – | 186.82 ± 2.9
[1], 335.15 K | – | 187.23 ± 2.9
[1], 337.15 K | – | 187.63 ± 2.9
[1], 339.15 K | – | 188.03 ± 2.9
[1], 341.15 K | – | 188.42 ± 2.9
[1], 343.15 K | – | 188.82 ± 2.9
[1], 345.15 K | – | 189.2 ± 2.9
[1], 347.15 K | – | 189.58 ± 2.9
[1], 349.15 K | – | 189.96 ± 2.9
[1], 351.15 K | – | 190.33 ± 3
[1], 353.15 K | – | 190.69 ± 3
[2], 288.15 K | 1987.92 ± 1.6 | –
[2], 298.15 K | 1972.75 ± 1.5 | –
[2], 308.15 K | 1957.62 ± 1.5 | –
[2], 318.15 K | 1942.51 ± 1.5 | –
[2], 328.15 K | 1927.42 ± 1.5 | –
[2], 338.15 K | 1912.34 ± 1.4 | –

Clc1ccccc1Cl [1,2-dichlorobenzene]
Settings | mass density [kg/m3] | molar heat capacity at constant pressure [J/K/mol]
[1], 283.15 K | – | 167.68 ± 2.6
[1], 285.15 K | – | 168.06 ± 2.6
[1], 287.15 K | – | 168.44 ± 2.6
[1], 289.15 K | – | 168.83 ± 2.6
[1], 291.15 K | – | 169.23 ± 2.6
[1], 293.15 K | – | 169.64 ± 2.6
[1], 295.15 K | – | 170.05 ± 2.6
[1], 297.15 K | – | 170.47 ± 2.6
[1], 299.15 K | – | 170.89 ± 2.6
[1], 301.15 K | – | 171.32 ± 2.6
[1], 303.15 K | – | 171.76 ± 2.7
[1], 305.15 K | – | 172.2 ± 2.7
[1], 307.15 K | – | 172.64 ± 2.7
[1], 309.15 K | – | 173.09 ± 2.7
[1], 311.15 K | – | 173.54 ± 2.7
[1], 313.15 K | – | 174 ± 2.7
[1], 315.15 K | – | 174.46 ± 2.7
[1], 317.15 K | – | 174.92 ± 2.7
[1], 319.15 K | – | 175.38 ± 2.7
[1], 321.15 K | – | 175.85 ± 2.7
[1], 323.15 K | – | 176.32 ± 2.7
[1], 325.15 K | – | 176.79 ± 2.7
[1], 327.15 K | – | 177.26 ± 2.8
[1], 329.15 K | – | 177.73 ± 2.8
[1], 331.15 K | – | 178.2 ± 2.8
[1], 333.15 K | – | 178.67 ± 2.8
[1], 335.15 K | – | 179.14 ± 2.8
[1], 337.15 K | – | 179.61 ± 2.8
[1], 339.15 K | – | 180.07 ± 2.8
[1], 341.15 K | – | 180.54 ± 2.8
[1], 343.15 K | – | 181 ± 2.8
[1], 345.15 K | – | 181.47 ± 2.8
[1], 347.15 K | – | 181.92 ± 2.8
[1], 349.15 K | – | 182.38 ± 2.8
[1], 351.15 K | – | 182.83 ± 2.8
[1], 353.15 K | – | 183.28 ± 2.8
[2], 288.15 K | 1311.76 ± 0.64 | –
[2], 298.15 K | 1300.61 ± 0.63 | –
[2], 308.15 K | 1289.45 ± 0.62 | –
[2], 318.15 K | 1278.29 ± 0.6 | –
[2], 328.15 K | 1267.09 ± 0.59 | –
[2], 338.15 K | 1255.87 ± 0.58 | –
